Source: PMC10435442, “Developing multitarget coumarin based anti-breast cancer agents: synthesis and molecular modeling study” (Scientific Reports, 2023)
Values after ≈ are worked out from the molar mass of the structure shown. Values joined by “and” are separate entries in the source; they are usually repeats but may differ in a detail not shown here. Equal entries are not always repeated. Where two headings read alike, the source gives them in different places.

What was measured:
in vitro = details: human, MCF-10A cells (nonmalignant breast)
MCF-10A = assay: MTT cytotoxicity assay, nonmalignant MCF-10A; details: read-out: MCF-10A IC50; MTT, nonmalignant MCF-10A;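 also: MTT assay with absorbance read at 570 nm after 48 h exposure of cells to serial compound concentrations at 37 °C, testing selectivity against nonmalignant versus cancer cells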
EGFR = EGFR (Homo sapiens, UniProt P00533); assay: In vitro EGFR enzyme inhibition assay (ELISA); details: for EGFR %inh: lab report 01-11-2021
MDA-MB-231 = assay: MTT cytotoxicity assay, MDA-MB-231; details: for IC50: Homo sapiens; for % viability: MDA; for anti-proliferative activity against MDA-MB-231 (in words): SAR discussion
MCF-7 = assay: MTT cytotoxicity assay, MCF-7; details: for IC50: Homo sapiens; for anti-proliferative activity against MCF-7 (in words): SAR discussion
Caspase-9 = Caspase-9 level (ELISA) in treated cells; type: cell-based, human
Bcl-2 = Bcl-2 level (ELISA) in treated cells; type: cell-based, human; details: for Bcl-2 Conc. (Average) / Bcl-2 Conc. (single wells): Bcl-2 ELISA; for BCL2 FLD (fold vs control): cont.MDA = 1
Bax = Bax level (ELISA) in treated cells; type: cell-based, human
[1] = EGFR IC50, lab report 01-11-2021, 10 compounds
[2] = MDA-MB-231, read-out: MDA-MBA-231 IC50
[3] = MDA-MB-231, read-out: cytotoxicity_IC50 MDA
[4] = MCF7, read-out: cytotoxicity_IC50 mcf7
[5] = MDA cells (MDA-MB-231) treated with the compound, cont.MDA 2.611±0.19
[6] = MDA cells (MDA-MB-231), caspase9 ELISA, duplicate wells, control 4.084
[7] = MDA cells (MDA-MB-231), cont.MDA = 1
[8] = MDA cells (MDA-MB-231) treated with the compound, cont.MDA 10.83±0.046
[9] = MDA cells (MDA-MB-231), duplicate wells, control 10.83
[10] = MDA cells (MDA-MB-231), mean of 2 wells, control 10.83
[11] = MDA, ELISA backfit, duplicate wells

EGFR, sequence (P00533 25-1210): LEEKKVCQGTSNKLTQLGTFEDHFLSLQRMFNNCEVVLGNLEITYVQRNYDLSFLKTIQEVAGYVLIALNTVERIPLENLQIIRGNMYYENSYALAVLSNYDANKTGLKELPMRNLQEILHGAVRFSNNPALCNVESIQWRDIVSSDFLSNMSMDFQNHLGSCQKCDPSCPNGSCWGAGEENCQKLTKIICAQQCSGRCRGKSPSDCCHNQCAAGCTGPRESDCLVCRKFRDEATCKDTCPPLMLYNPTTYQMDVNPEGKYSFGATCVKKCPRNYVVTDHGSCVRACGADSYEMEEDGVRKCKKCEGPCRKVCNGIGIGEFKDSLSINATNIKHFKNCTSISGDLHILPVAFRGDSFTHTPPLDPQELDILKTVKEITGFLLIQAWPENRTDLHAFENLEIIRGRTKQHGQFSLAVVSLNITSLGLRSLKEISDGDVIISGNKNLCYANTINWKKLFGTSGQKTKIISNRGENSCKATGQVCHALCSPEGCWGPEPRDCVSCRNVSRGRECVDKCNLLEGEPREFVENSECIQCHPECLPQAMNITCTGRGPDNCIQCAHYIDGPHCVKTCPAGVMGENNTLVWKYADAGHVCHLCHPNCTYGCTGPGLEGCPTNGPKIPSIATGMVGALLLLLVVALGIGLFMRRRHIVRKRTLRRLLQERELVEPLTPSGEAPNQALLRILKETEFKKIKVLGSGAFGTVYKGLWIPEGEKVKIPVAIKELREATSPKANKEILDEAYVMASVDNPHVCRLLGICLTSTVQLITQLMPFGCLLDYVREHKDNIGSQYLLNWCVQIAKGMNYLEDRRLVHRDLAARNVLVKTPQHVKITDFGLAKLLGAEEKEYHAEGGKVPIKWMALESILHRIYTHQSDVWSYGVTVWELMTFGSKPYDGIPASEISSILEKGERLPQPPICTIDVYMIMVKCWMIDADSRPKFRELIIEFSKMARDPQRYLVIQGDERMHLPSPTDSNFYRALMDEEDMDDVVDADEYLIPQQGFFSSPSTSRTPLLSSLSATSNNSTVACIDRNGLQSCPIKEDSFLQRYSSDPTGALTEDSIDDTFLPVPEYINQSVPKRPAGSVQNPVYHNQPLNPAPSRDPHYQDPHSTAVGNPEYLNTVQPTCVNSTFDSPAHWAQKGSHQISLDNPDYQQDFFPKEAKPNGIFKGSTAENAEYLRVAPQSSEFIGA

SMILES | IC50 at 48 h (in vitro) | viability at 48 h, 0.4 ug (in vitro) | viability at 48 h, 1.6 ug (in vitro) | viability at 48 h, 6.25 ug (in vitro) | viability at 48 h, 25 ug (in vitro) | viability at 48 h, 100 ug (in vitro) | IC50 (MCF-10A) | IC50 (EGFR; [1]) | IC50 (EGFR; EGFR inhibition IC50) | Percentage above Reference IC50 (potency relative to erlotinib) (EGFR; reference Erlotinib) | IC50 (MDA-MB-231; [2]) | IC50 (MDA-MB-231; [3]) | % viability (MDA-MB-231; 0.4ug (log conc. -0.41)) | IC50 (MCF-7; MCF7, read-out: MCF-7 IC50) | IC50 (MCF-7; [4]) | % viability (MCF-7; MCF7, 0.4ug) | % viability (MCF-7; MCF7, 1.6ug) | % viability (MCF-7; MCF7, 6.3ug) | % viability (MCF-7; MCF7, 25ug) | % viability (MCF-7; MCF7, 100ug) | also measured
O=C(COc1ccc2c(COC(=O)c3ccccc3)cc(=O)oc2c1)c1ccccc1 [Compound 7, [2-Oxo-7-(2-oxo-2-phenylethoxy)-2H-chromen-4-yl]methyl benzoate] | 41.9 ± 2.04 µg/mL (≈ 101 µM) | 78.3% | 71.5% | 59.2% | 53.7% | 45.1% | 101 ± 2.04 µM | 0.333 µM | 0.341 ± 0.019 µM | 24.633% | 56.7 ± 1.28 µM | 23.5 ± 1.28 µg/mL | 75.96% | 77.5 ± 1.94 µM | 32.1 ± 1.94 µg/mL | 83.43% | 71.93% | 62.508% | 52.7829% | 40.856% | EGFR %inh (EGFR; conc 0.01 (unit not given)): 30%; EGFR %inh (EGFR; conc 0.1 (unit not given)): 42%; EGFR %inh (EGFR; conc 1 (unit not given)): 67%; EGFR %inh (EGFR; conc 10 (unit not given)): 89%; % viability (MDA-MB-231; 1.6ug (log conc. 0.19)): 68.64%; % viability (MDA-MB-231; 6.25ug (log conc. 0.8)): 59.243%; % viability (MDA-MB-231; 100ug (log conc. 2)): 38.991%; anti-proliferative activity against MDA-MB-231 (in words) (MDA-MB-231): poor anti-proliferative activity; anti-proliferative activity against MCF-7 (in words) (MCF-7): diminished the activity
O=C(COc1ccc2c(COC(=O)c3ccc(Cl)cc3)cc(=O)oc2c1)c1ccccc1 [Compound 9, [2-Oxo-7-(2-oxo-2-phenylethoxy)-2H-chromen-4-yl]methyl 4-chlorobenzoate] | 135 ± 6.56 µg/mL (≈ 301 µM) | 90.6% | 79.6% | 70.3% | 61.8% | 52.3% | 301 ± 6.56 µM | 0.131 µM | 0.131 ± 0.009 µM | 64.122% | 10.4 ± 0.25 µM | 4.65 ± 0.25 µg/mL | – | 100 ± 2.73 µM | 45 ± 2.73 µg/mL | 77.17% | 70.74% | 62.232% | 54.2277% | 44.25% | anti-proliferative activity against MDA-MB-231 (in words) (MDA-MB-231): poor anti-proliferative activity; anti-proliferative activity against MCF-7 (in words) (MCF-7): diminished the activity
COc1ccccc1C(=O)OCc1cc(=O)oc2cc(OCC(=O)c3ccccc3)ccc12 [Compound 11, [2-Oxo-7-(2-oxo-2-phenylethoxy)-2H-chromen-4-yl]methyl 2-methoxybenzoate] | 79.2 ± 3.86 µg/mL (≈ 178 µM) | 84.2% | 76.6% | 66.5% | 58.4% | 47.8% | 178 ± 3.86 µM | – | 1.83 ± 0.038 µM | 7.91% | 61.2 ± 1.48 µM | 27.2 ± 1.48 µg/mL | 73.69% | 131 ± 3.52 µM | 58.1 ± 3.52 µg/mL | 86.03% | 75.27% | 65.137% | 57.0548% | 45.822% | IC50 (EGFR; EGFR IC50, lab report 01-09-2021, 04 compounds, reference Erlotinib): 1.83 µM; inhibition at 10 pg/mL (EGFR; read-out: EGFR %inh): 7.8%; inhibition at 0.0001 µg/mL (EGFR; read-out: EGFR %inh): 23%; inhibition at 0.001 µg/mL (EGFR; read-out: EGFR %inh): 54%; inhibition at 0.01 µg/mL (EGFR; read-out: EGFR %inh): 76%; % viability (MDA-MB-231; 1.6ug (log conc. 0.19)): 66.71%; % viability (MDA-MB-231; 6.25ug (log conc. 0.8)): 58.055%; % viability (MDA-MB-231; 25ug (log conc. 1.4)): 52.2673%; % viability (MDA-MB-231; 100ug (log conc. 2)): 41.289%; anti-proliferative activity against MDA-MB-231 (in words) (MDA-MB-231): poor anti-proliferative activity; anti-proliferative activity against MCF-7 (in words) (MCF-7): diminished the activity
CC(=O)Oc1ccc2c(COC(=O)c3ccccc3)cc(=O)oc2c1 [Compound 13, (7-Acetoxy-2-oxo-2H-chromen-4-yl)methyl benzoate] | 166 ± 8.1 µg/mL (≈ 491 µM) | 89.7% | 81.1% | 73.6% | 63.3% | 52.2% | 490 ± 8.1 µM | 0.364 µM | 0.363 ± 0.02 µM | 23.14% | 30.7 ± 0.56 µM | 10.4 ± 0.56 µg/mL | 65.76% | 111 ± 2.28 µM | 37.6 ± 2.28 µg/mL | 80.82% | 70.97% | 64.282% | 55.0733% | 40.88% | % viability (MDA-MB-231; 1.6ug (log conc. 0.19)): 58.55%; % viability (MDA-MB-231; 6.25ug (log conc. 0.8)): 52.297%; % viability (MDA-MB-231; 25ug (log conc. 1.4)): 46.9551%; % viability (MDA-MB-231; 100ug (log conc. 2)): 38.515%
O=C(COc1ccc2c(COC(=O)c3ccccc3)cc(=O)oc2c1)c1ccc(Cl)cc1 [Compound S8] | – | – | – | – | – | – | – | – | – | – | – | – | – | – | – | – | – | – | – | – | Casp9 (Caspase-9; MCF7 cells treated with the compound, cont.MCF7 4.528±0.61): 30.39 ± 2.56 ng/mL; Caspase 9 Conc. (Average) (Caspase-9; MCF7 cells, caspase9 ELISA, mean of 3 wells, control 4.528): 30.39 ng/mL; Caspase 9 Conc. (single wells) (Caspase-9; MCF7 cells, caspase9 ELISA, replicate wells, control 4.528): 27.43 ng/mL and 31.78 ng/mL and 31.97 ng/mL; Casp9 FLD (fold vs control) (Caspase-9; MCF7 cells, cont.MCF7 = 1): 6.71; BCL2 conc. (Bcl-2; MCF7): 3.291 ± 0.36 ng/mL; BCL2 FLD (Bcl-2; MCF7, fold vs cont.MCF7 = 1): 0.44; Bcl-2 Conc. (Average) (Bcl-2; MCF7 cells treated with the compound, mean of 3 wells, control 7.438): 3.291 ng/mL; Bcl-2 Conc. (single wells) (Bcl-2; MCF7 cells treated with the compound, replicate wells, control 7.438): 3.693 ng/mL and 3.01 ng/mL and 3.172 ng/mL; Bax Conc. (Average) (Bax; MCF7, ELISA backfit, wells A2-C2): 164.5 pg/mL; BAX (Bax; MCF7, cell culture supernatant): 164.5 ± 5.58 pg/mL; BAX FLD (Bax; MCF7, fold vs cont.MCF7 = 1): 5.27
O=C(COc1ccc2c(COC(=O)c3ccc(Cl)cc3)cc(=O)oc2c1)c1ccc(Cl)cc1 [s10] | – | – | – | – | – | – | – | – | – | – | – | – | – | – | – | – | – | – | – | – | Casp9 (Caspase-9; [5]): 16.77 ± 0.37 ng/mL; Caspase 9 Conc. (single wells) (Caspase-9; [6]): 18.48 ng/mL and 17.62 ng/mL; Casp9 FLD (fold vs control) (Caspase-9; [7]): 6.42; BCL2 conc. (Bcl-2; [8]): 4.088 ± 0.058 ng/mL; Bcl-2 Conc. (single wells) (Bcl-2; [9]): 4.046 ng/mL and 4.129 ng/mL; Bcl-2 Conc. (Average) (Bcl-2; [10]): 4.088 ng/mL; BCL2 FLD (fold vs control) (Bcl-2; MDA cells (MDA-MB-231)): 0.377; Bax Conc. (Average) (Bax; [11]): 248.9 pg/mL; BAX (Bax; MDA, cell culture supernatant): 248.9 ± 7.88 pg/mL; BAX FLD (Bax; MDA, fold vs cont.MDA = 1): 3.6
COc1ccccc1C(=O)OCc1cc(=O)oc2cc(OCC(=O)c3ccc(Cl)cc3)ccc12 [s12] | – | – | – | – | – | – | – | – | – | – | – | – | – | – | – | – | – | – | – | – | Casp9 (Caspase-9; [5]): 19.16 ± 0.41 ng/mL; Caspase 9 Conc. (single wells) (Caspase-9; [6]): 21.43 ng/mL and 21.56 ng/mL; Casp9 FLD (fold vs control) (Caspase-9; [7]): 7.34; BCL2 conc. (Bcl-2; [8]): 2.934 ± 0.154 ng/mL; Bcl-2 Conc. (single wells) (Bcl-2; [9]): 2.826 ng/mL and 3.043 ng/mL; Bcl-2 Conc. (Average) (Bcl-2; [10]): 2.934 ng/mL; BCL2 FLD (fold vs control) (Bcl-2; MDA cells (MDA-MB-231)): 0.271; Bax Conc. (Average) (Bax; [11]): 360.4 pg/mL; BAX (Bax; MDA, cell culture supernatant): 360.4 ± 11.8 pg/mL; BAX FLD (Bax; MDA, fold vs cont.MDA = 1): 5.22
